# Measurements from paper PMC8338929, “Acetylation turns leucine into a drug by membrane transporter switching” (Scientific Reports, 2021).
# T1: human MCT1 (SLC16A1) (Homo sapiens, UniProt P53985)
# T1 construct: host or cells: MDCK-II
# T1 sequence (P53985 1-500): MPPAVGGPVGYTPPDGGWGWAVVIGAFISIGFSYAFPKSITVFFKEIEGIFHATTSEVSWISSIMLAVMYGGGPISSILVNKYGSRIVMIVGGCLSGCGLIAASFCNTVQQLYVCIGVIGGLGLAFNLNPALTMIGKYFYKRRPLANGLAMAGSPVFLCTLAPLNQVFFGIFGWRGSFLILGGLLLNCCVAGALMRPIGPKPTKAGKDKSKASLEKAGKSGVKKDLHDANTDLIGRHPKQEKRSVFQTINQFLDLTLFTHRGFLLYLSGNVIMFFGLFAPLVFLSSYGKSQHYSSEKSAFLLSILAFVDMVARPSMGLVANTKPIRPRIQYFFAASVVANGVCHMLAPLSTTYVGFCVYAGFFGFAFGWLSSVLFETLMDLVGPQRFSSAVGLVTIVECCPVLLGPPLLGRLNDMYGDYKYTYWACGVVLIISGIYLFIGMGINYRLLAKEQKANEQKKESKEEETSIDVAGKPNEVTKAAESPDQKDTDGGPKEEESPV
# B1: Human OAT1 (SLC22A6) (Homo sapiens) (protein)
# chain: MAFNDLLQQVGGVGRFQQIQVTLVVLPLLLMASHNTLQNFTAAIPTHHCRPPADANLSKNGGLEVWLPRDRQGQPESCLRFTSPQWGLPFLNGTEANGTGATEPCTDGWIYDNSTFPSTIVTEWDLVCSHRALRQLAQSLYMVGVLLGAMVFGYLADRLGRRKVLILNYLQTAVSGTCAAFAPNFPIYCAFRLLSGMALAGISLNCMTLNVEWMPIHTRACVGTLIGYVYSLGQFLLAGVAYAVPHWRHLQLLVSAPFFAFFIYSWFFIESARWHSSSGRLDLTLRALQRVARINGKREEGAKLSMEVLRASLQKELTMGKGQASAMELLRCPTLRHLFLCLSMLWFATSFAYYGLVMDLQGFGVSIYLIQVIFGAVDLPAKLVGFLVINSLGRRPAQMAALLLAGICILLNGVIPQDQSIVRTSLAVLGKGCLAASFNCIFLYTGELYPTMIRQTGMGMGSTMARVGSIVSPLVSMTAELYPSMPLFIYGAVPVAASAVTVLLPETLGQPLPDTVQDLESRWAPTQKEAGIYPRKGKQTRQQQEHQKYMVPLQASAQEKNGL
# B2: Human OAT3 (SLC22A8) (Homo sapiens) (protein)
# chain: MTFSEILDRVGSMGHFQFLHVAILGLPILNMANHNLLQIFTAATPVHHCRPPHNASTGPWVLPMGPNGKPERCLRFVHPPNASLPNDTQRAMEPCLDGWVYNSTKDSIVTEWDLVCNSNKLKEMAQSIFMAGILIGGLVLGDLSDRFGRRPILTCSYLLLAASGSGAAFSPTFPIYMVFRFLCGFGISGITLSTVILNVEWVPTRMRAIMSTALGYCYTFGQFILPGLAYAIPQWRWLQLTVSIPFFVFFLSSWWTPESIRWLVLSGKSSKALKILRRVAVFNGKKEEGERLSLEELKLNLQKEISLAKAKYTASDLFRIPMLRRMTFCLSLAWFATGFAYYSLAMGVEEFGVNLYILQIIFGGVDVPAKFITILSLSYLGRHTTQAAALLLAGGAILALTFVPLDLQTVRTVLAVFGKGCLSSSFSCLFLYTSELYPTVIRQTGMGVSNLWTRVGSMVSPLVKITGEVQPFIPNIIYGITALLGGSAALFLPETLNQPLPETIEDLENWSLRAKKPKQEPEVEKASQRIPLQPHGPGLGSS
# B3: human MCT1 (SLC16A1) (Homo sapiens) (protein)
# chain: T1 sequence (P53985 1-500)
# Assays:
# [1] = N-acetyl-leucine metabolism in pooled mouse liver S9 fraction (LC-MS); assay type: in vitro ADME; details: 1 µM initial concentration, 0-60 min
# Description: (§3) V0 = Vmax. [S]/Km + [S], where V0 is initial velocity, [S] is substrate concentration, Vmax is maximum velocity and Km is substrate concentration at half Vmax. All fitting was performed using GraphPad Prism 8.4 software (GraphPad Software Inc). No weighting scheme was applied.
# [2] = N-acetyl-leucine metabolism in pooled human liver S9 fraction (LC-MS); assay type: in vitro ADME; details: 1 µM initial concentration, 0-60 min
# Description: as §3
# LAT1 = details: read-out: Km LAT1; quoted in discussion, no reference given; cited from earlier work
# human MCT1 (SLC16A1) [3] = target: T1, human MCT1 (SLC16A1); experiment: MCT1-mediated cellular uptake in transfected MDCK-II cells; assay type: cell-based; details: 1 min, room temperature, Michaelis-Menten fit
# Description: (§1) Transport studies with human PepT1 (SLC15A1), LAT1 (SLC7A5) and MCT1 (SLC16A1) were conducted in MDCK-II cells expressing the human transporter or control cells expressing a vector with Green Fluorescence Protein. Cells were transfected using a proprietary, transient transfection system (OPTI-EXPRESSION Technology, BioIVT). The results from the control cells were used to correct for substrate permeation by routes other than the transporter being investigated in the study. […] Specifically, Net Transporter Mediated Substrate Uptake (pmol/min/cm^2) = (Cellular accumulation in the presence of the transporter) − (Mean cellular accumulation in the absence of the transporter). MDCK-II cells were maintained in DMEM with low glucose and 10% FBS. Cells were used at passages up to 40 were seeded at 60,000 ± 10,000 cells/well on 96-well plates approximately 24 h before transfection, and transport assays were performed approximately 48 h after transfection. Transport studies in MDCK-II cells were conducted in 96-well insert plates with permeable membrane (0.4 µm) and receiver tray (Millipore MultiScreen Filter 96-well).
# (§2) Transport studies with PepT1 were conducted in 96-well cell culture plate with wells containing a monolayer of MDCK-II cells grown on a permeable support and a corresponding 96-well receiver tray. Cell plates are maintained at 37 °C in 5% CO2 atmosphere prior to initiation of the transport experiment. Pre-incubation was conducted in HBSS, pH 7.4. The transport experiments were conducted in HBSS with Bis–Tris, pH 5.5, without phenol red. Both pre-incubation and incubation were conducted at 37 °C. All final assay solutions of probe substrate, reference inhibitor or test article contain 0.5% (v/v) DMSO (vehicle control). The culture plate insert […] was washed with warm HBSS three times and then blotted dry. The culture plate wells […] were washed with warm HBSS three times. […] Then a 30-µL sample was taken and mixed with 200 µL of scintillation fluid and scintillation counted (1450 Microbeta, Perkin-Elmer). […]
# human MCT1 (SLC16A1) [4] = target: T1, human MCT1 (SLC16A1); experiment: Inhibition of MCT1 uptake of probe substrate 2-thiophene glyoxylate in MDCK-II cells; assay type: cell-based
# Description: as §1
# as §2, with “times. 100 µL of 37 °C HBSS pH 7.4 pre-incubation buffer to the apical compartment as follows: for the probe substrate transport assay, the HBSS contains vehicle; for the reference inhibition assay, the HBSS contains the reference inhibitor at the required concentration; for the test article assays, the HBSS in each well contains test compound at the specified concentration. The plates were incubated at 37 °C with orbital shaking at approximately 60 rpm for the pre-incubation (30 min), aspirated and then 100 µL of the experimental buffer was added.” for “times.”
# [5] = substrate: CC(=O)N[C@@H](CC(C)C)C(=O)O; experiment: cells, lysate or membranes; details: Michaelis-Menten fit
molecule,measurement,setting,value
[2H]C([2H])([2H])C([2H])(C([2H])([2H])[2H])C([2H])([2H])C([2H])(NC(C)=O)C(=O)O (racemic) [N-acetyl-DL-[^2H10]leucine],"disappearance: asymptote as % of the initial concentration, mouse liver S9",[1],~50%
same,"disappearance: asymptote as % of the initial concentration, human liver S9",[2],~50%
CC(C)C[C@H](N)C(=O)O [L-leucine],Km,LAT1,200 µM
CC(=O)N[C@H](CC(C)C)C(=O)O [N-acetyl-D-leucine],Km,human MCT1 (SLC16A1) [3],1000 µM
same,Vmax MCT1 uptake,human MCT1 (SLC16A1) [3],80
same,Ki,"human MCT1 (SLC16A1) [4]; Cheng-Prusoff equation from IC50, competitive inhibition assumed, read-out: affinity (Ki) MCT1",1.6 mM
same,IC50,"human MCT1 (SLC16A1) [4]; probe 2-thiophene glyoxylate 500 µM, positive control phloretin 500 µM",11 mM
B1,Km,"[5]; other: HEK-293 cells, pH 7.4",11000 µM
B2,Km,"[5]; other: HEK-293 cells, pH 7.4",7800 µM
B3,Km,"[5]; other: MDCK-II cells, 1 min, room temperature",3000 µM
